In ChEMBL document CHEMBL1201862, “PubChem BioAssay data set” (2004):
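Following 48 hours of exposure in 96-well plates, responses at five concentrations were used to interpolate endpoints linearly. At the GI50, growth is halved.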 Activity calls are given as the source filed them. Rule as the data show it: active = GI50 up to about 1.1 µM and inactive = higher.

What was measured:
Assay in all cases: NCI-60 cell line screen, 48 h
HCT-116 = system: HCT-116
CCRF-CEM = system: CCRF-CEM
COLO 205 = system: COLO 205
NCI-H23 = system: NCI-H23
SK-MEL-5 = system: SK-MEL-5
MDA-MB-231 = system: MDA-MB-231
SN12C = system: SN12C
HL-60 = system: HL-60
CAKI-1 = system: CAKI-1
UACC-257 = system: UACC-257
IGROV-1 = system: IGROV-1
RXF 393 = system: RXF 393
HCT-15 = system: HCT-15
K562 = system: K562
MOLT-4 = system: MOLT-4
MDA-MB-435 = system: MDA-MB-435
OVCAR-8 = system: OVCAR-8
SR = system: SR
PC-3 = system: PC-3
OVCAR-5 = system: OVCAR-5
UO-31 = system: UO-31
SF-539 = system: SF-539
Hs-578T = system: Hs-578T
U-251 = system: U-251
BT-549 = system: BT-549
OVCAR-4 = system: OVCAR-4
NCI-H226 = system: NCI-H226
RPMI-8226 = system: RPMI-8226
HOP-62 = system: HOP-62
NCI/ADR-RES = system: NCI/ADR-RES
ACHN = system: ACHN
LOX IMVI = system: LOX IMVI
SNB-75 = system: SNB-75
KM12 = system: KM12
DU-145 = system: DU-145
TK-10 = system: TK-10
Malme-3M = system: Malme-3M
NCI-H460 = system: NCI-H460
A549 = system: A549
MCF7 = system: MCF7
OVCAR-3 = system: OVCAR-3
HT-29 = system: HT-29
786-0 = system: 786-0
MDA-N = system: MDA-N
HCC 2998 = system: HCC 2998
SK-MEL-28 = system: SK-MEL-28
SNB-19 = system: SNB-19
SF-295 = system: SF-295
SF-268 = system: SF-268
EKVX = system: EKVX
NCI-H522 = system: NCI-H522
A498 = system: A498
HOP-92 = system: HOP-92
SW-620 = system: SW-620

Compound: Nc1nc(Cl)c(/C=N\O)c(NCC2(CO)CC(=O)C2)n1
- GI50 (HCT-116): 88.7 µM (inactive)
- GI50 (CCRF-CEM): 41.7 µM (inactive)
- GI50 (COLO 205): > 100 µM (inactive)
- GI50 (NCI-H23): 36.4 µM (inactive)
- GI50 (SK-MEL-5): 76.7 µM (inactive)
- GI50 (MDA-MB-231): 80.7 µM (inactive)
- GI50 (SN12C): > 100 µM (inactive)
- GI50 (HL-60): 5.33 µM (inactive)
- GI50 (CAKI-1): 75.3 µM (inactive)
- GI50 (UACC-257): 58.3 µM (inactive)
- GI50 (IGROV-1): 23.2 µM (inactive)
- GI50 (RXF 393): 39.4 µM (inactive)
- GI50 (HCT-15): > 100 µM
- GI50 (K562): 54.2 µM (inactive)
- GI50 (MOLT-4): 31.8 µM (inactive)
- GI50 (MDA-MB-435): 95.1 µM (inactive)
- GI50 (OVCAR-8): > 100 µM (inactive)
- GI50 (SR): 3.85 µM (inactive)
- GI50 (PC-3): 80.2 µM (inactive)
- GI50 (OVCAR-5): 85.3 µM (inactive)
- GI50 (UO-31): 47.4 µM (inactive)
- GI50 (SF-539): 78.2 µM (inactive)
- GI50 (Hs-578T): 18.7 µM (inactive)
- GI50 (U-251): > 100 µM (inactive)
- GI50 (BT-549): 51.5 µM (inactive)
- GI50 (OVCAR-4): 84.3 µM (inactive)
- GI50 (NCI-H226): > 100 µM (inactive)
- GI50 (RPMI-8226): 3.33 µM (inactive)
- GI50 (HOP-62): 76.9 µM (inactive)
- GI50 (NCI/ADR-RES): > 100 µM (inactive)
- GI50 (ACHN): 62.1 µM (inactive)
- GI50 (LOX IMVI): 45.8 µM (inactive)
- GI50 (SNB-75): 31.1 µM (inactive)
- GI50 (KM12): 24.5 µM (inactive)
- GI50 (DU-145): 77.4 µM (inactive)
- GI50 (TK-10): > 100 µM (inactive)
- GI50 (Malme-3M): 33.7 µM (inactive)
- GI50 (NCI-H460): 67.3 µM (inactive)
- GI50 (A549): 30.8 µM (inactive)
- GI50 (MCF7): 52.5 µM (inactive)
- GI50 (OVCAR-3): 60.1 µM (inactive)
- GI50 (HT-29): 80 µM (inactive)
- GI50 (786-0): 49.1 µM (inactive)
- GI50 (MDA-N): 96.4 µM (inactive)
- GI50 (HCC 2998): > 100 µM (inactive)
- GI50 (SK-MEL-28): > 100 µM (inactive)
- GI50 (SNB-19): > 100 µM (inactive)
- GI50 (SF-295): 56 µM (inactive)
- GI50 (SF-268): > 100 µM (inactive)
- GI50 (EKVX): > 100 µM (inactive)
- GI50 (NCI-H522): 68.7 µM (inactive)
- GI50 (A498): 34.4 µM (inactive)
- GI50 (HOP-92): 40.8 µM (inactive)
- GI50 (SW-620): 89.1 µM (inactive)
